Columns and labels:
[1] = test system: Candida albicans ATCC 10231; test: Synergistic antimicrobial activity as MIC (96-well microplate, optical density at 620 nm), Candida albicans; format: cell-based
Excerpt: (§1) FIC Index=(MICa with B/MICa)+(MICb with A/MICb)
(§2) with: • MICa with B: minimum concentration of product A in the combination A+B which makes it possible to obtain an inhibitory effect • MICb with A: minimum concentration of product B in the combination A+B which makes it possible to obtain an inhibitory effect. • MICa: minimum inhibitory concentration of product A alone. • MICb: minimum inhibitory concentration of product B alone.
(§3) As regards the combinations tested, MICa with b and MICb with a are the respective concentrations of A and of B in the combinations which make it possible to obtain a microbial growth percentage of less than or equal to 20%.
(§4) When the FIC index value is less than or equal to 1, it is considered that the combination of test compounds has a synergistic effect.
The microbial strain Candida albicans ATCC 10231 and a double-concentration Sabouraud broth liquid culture medium were used.
(§5) A 96-well microplate and an […] of 32.5° C. are used.
(§6) The incubation time of the microplate is: • from 18 to 24 h under aerobic conditions for Candida albicans ATCC 10231; • from 24 to 30 h under aerobic conditions for Aspergillus niger ATCC 6275.
(§7) A 10% (weight/volume) stock solution was prepared by mixing 1 g of compound in 9 ml of aqueous 1% o agar solution. Successive dilutions were made with the 1% o agar solution. • Test of compounds A and B alone
(§8) 50 μl of each of the daughter solutions obtained containing compound A or B are added to the microplate wells. 100 μl of Sabouraud liquid nutrient broth inoculated with the strain Aspergillus niger and 50 μl of aqueous 1% o agar solution are also added thereto. • Test of compounds A and B as a mixture
(§9) 50 μl of each of the daughter solutions obtained containing compound A and 50 μl of each of the daughter solutions obtained containing compound B are added to the microplate wells. 100 μl of Sabouraud liquid nutrient broth inoculated at double concentration with the strain Aspergillus niger are also added thereto.
The test as described above (tests, absorbance control and growth control) was performed again to test the combination A and B on the Candida albicans strain.

[2] = test system: Aspergillus niger ATCC 6275; test: Synergistic antimicrobial activity as MIC (96-well microplate, optical density at 620 nm), Aspergillus niger; format: cell-based
Excerpt: as §1, §2, §3, §4
The microbial strain Aspergillus niger ATCC 6275, and a double-concentration Sabouraud broth liquid culture medium supplemented with polyoxyethylenated (20 OE) sorbitan monopalmitate (Tween 40 from Croda) and Phytagel© BioReagent were used (i.e. a mixture of 5 g of Phytagel+0.6 g Tween 40+60 g of Sabouraud broth).
as §5, §6, §7, §8, §9
A positive microbial growth control was also prepared. The positive microbial growth control corresponds to a mixture of 100 μl of aqueous 1% o agar solution with 100 μl of Sabouraud liquid nutrient broth inoculated at double concentration with the strain Aspergillus niger in the absence of compounds A and B.
An absorbance control was performed in parallel on compounds A and B alone. This control corresponds to 100 μl of double concentration sterile Sabouraud liquid nutrient broth+100 μl of double concentration compound A or B.
In the three cases (absorbance control, growth control and test), the final volume present in each of the microplate wells is 200 μl.
In the two cases (test and control), the inoculum represents the concentration of the Aspergillus niger strain present in the final volume of the wells (200 μl) and is between 2 and 6×10^5 cfu/ml of Aspergillus niger.

[3] = Aspergillus niger, growth <= 20%

CCCCCCCCC(O)CO (centres unmarked) [B3, 1,2-decanediol]
microbial growth percentage ([1]; 0 A, 0.0125 B3 (weight %)): 45% | microbial growth percentage ([1]; 0 A, 0.025 B3 (weight %)): 3% | % MIC of B3 alone ([1]; Candida albicans, growth <= 20%): 0.025% | microbial growth percentage ([2]; 0 A, 0.0125 B3 (weight %)): 42% | microbial growth percentage ([2]; 0 A, 0.025 B3 (weight %)): 10% | % MIC of B3 alone [2, 3]: 0.025%

CCOc1cc(CCC(C)=O)ccc1O [A, 4-(3-ethoxy-4-hydroxyphenyl)butan-2-one]
microbial growth percentage ([1]; 0.025 A, 0 B2 (weight %)): 81% | microbial growth percentage ([1]; 0.025 A, 0 B3 (weight %)): 78% | microbial growth percentage ([1]; 0.05 A, 0 B2 (weight %)): 60% | microbial growth percentage ([1]; 0.05 A, 0 B3 (weight %)): 61% | microbial growth percentage ([1]; 0.1 A, 0 B2 (weight %)): 27% | microbial growth percentage ([1]; 0.1 A, 0 B3 (weight %)): 25% | microbial growth percentage ([1]; 0.2 A, 0 B2 (weight %)): 4% | microbial growth percentage ([1]; 0.2 A, 0 B3 (weight %)): 3% | % MIC A ([1]; A alone, Candida albicans, test series with B2, growth <= 20%): 0.2% | % MIC of A alone ([1]; Candida albicans, test series with B3, growth <= 20%): 0.2% | microbial growth percentage ([2]; 0.025 A, 0 B1 (weight %)): 42% | microbial growth percentage ([2]; 0.025 A, 0 B3 (weight %)): 39% | microbial growth percentage ([2]; 0.05 A, 0 B1 (weight %)): 25% | microbial growth percentage ([2]; 0.05 A, 0 B3 (weight %)): 32% | microbial growth percentage ([2]; 0.1 A, 0 B1 (weight %)): 10% | microbial growth percentage ([2]; 0.1 A, 0 B3 (weight %)): 12% | % MIC of A alone ([2]; Aspergillus niger, test series with B1, growth <= 20%): 0.1% | % MIC of A alone ([2]; Aspergillus niger, test series with B3, growth <= 20%): 0.1%

CCCCCCC(O)CO (centres unmarked) [B2, 1,2-octanediol]
microbial growth percentage ([1]; 0 A, 0.025 B2 (weight %)): 79% | microbial growth percentage ([1]; 0 A, 0.05 B2 (weight %)): 60% | microbial growth percentage ([1]; 0 A, 0.1 B2 (weight %)): 23% | microbial growth percentage ([1]; 0 A, 0.2 B2 (weight %)): 0% | MIC B2 ([1]; B2 alone, Candida albicans, growth <= 20%): 0.2%

OCCCO [B1, 1,3-propanediol]
microbial growth percentage ([2]; 0 A, 0.125 B1 (weight %)): 77% | microbial growth percentage ([2]; 0 A, 0.25 B1 (weight %)): 62% | microbial growth percentage ([2]; 0 A, 0.5 B1 (weight %)): 50% | microbial growth percentage ([2]; 0 A, 1 B1 (weight %)): 36% | microbial growth percentage ([2]; 0 A, 2 B1 (weight %)): 11% | % MIC of B1 alone [2, 3]: 2%

From US20210205192A1, “ANTIMICROBIAL MIXTURE CONTAINING 4-(3-ETHOXY-4-HYDROXYPHENYL)BUTAN-2-ONE AND A DIOL, AND COSMETIC COMPOSITION CONTAINING SAME” (L'OREAL, priority 2017, published 2021)
